We go through one molecule from patent publication US8129547B2, “Anticoagulation of human blood ex vivo” (priority 2006, dated 2012).

The assay addresses T1, Factor Xa (Homo sapiens, UniProt P00742).
T1 construct: purchased Haemochrom Diagnostica GmbH (Essen, D)
As to the kind of experiment: Determination of Ki values, chromogenic substrate, Dixon evaluation: Factor Xa. In kind it is biochemical. Particulars: 25° C., tris buffer pH 8.0, substrate CH3OCO-D-Cha-Gly-Arg-pNA.

T1 sequence (P00742 235-488 limits assumed): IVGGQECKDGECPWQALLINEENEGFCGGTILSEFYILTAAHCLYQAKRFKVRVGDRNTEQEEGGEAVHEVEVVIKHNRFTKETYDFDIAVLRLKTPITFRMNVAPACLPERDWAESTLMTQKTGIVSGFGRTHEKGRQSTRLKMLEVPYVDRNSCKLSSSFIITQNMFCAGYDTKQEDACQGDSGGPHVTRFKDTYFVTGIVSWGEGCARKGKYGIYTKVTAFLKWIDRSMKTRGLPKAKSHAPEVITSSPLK
T1 sequence (P00742 41-179 partner limits assumed): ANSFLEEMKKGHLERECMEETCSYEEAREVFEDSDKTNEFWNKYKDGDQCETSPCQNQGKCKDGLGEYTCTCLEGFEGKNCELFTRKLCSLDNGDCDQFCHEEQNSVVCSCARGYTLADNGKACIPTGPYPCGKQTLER

On to `N=C(N)c1ccc(C=C2CCCCC(=Cc3ccc(C(=N)N)cc3)C2=O)cc1` [Pefabloc tPA/Xa, 2,7-bis(4-amidinobenzylidene)-cycloheptanone-(1)], for which affinity was put at a Ki of 5.1 nM.

Usually Ki stands for a measure of affinity in units of concentration, obtained from inhibition or displacement. Low values mean tighter binding, high ones weaker binding.
